This passage reports MIC results from DBAASP.

The term MIC denotes the lowest concentration that inhibits growth of the organism.

Among the test systems are Escherichia coli 1005; Candida albicans; Escherichia coli BW25113; Escherichia coli W160-37.
Holding throughout (assay): ≥ marks a high value that may be exact or a test limit, other limits are often not marked, values filed in µg/mL are converted to µM
The test system of assay [1] is Candida tropicalis CGMCC 2.1975.
For assay [2], the system named is Staphylococcus aureus ATCC 25923.
Assay [3] deals with Candida krusei CGMCC 2.1857.
In assay [4] the test system is Salmonella enterica subsp. enterica serovar Pullorum ATCC 7913.
For assay [5], the system named is Salmonella enterica subsp. enterica serovar Typhimurium ATCC 14028.
The subject of assay [6] is Staphylococcus aureus ATCC 29213.
Assay [7] has as its system Staphylococcus aureus ATCC 43300.
For assay [8], the system named is Candida parapsilosis CGMCC 2.3989.
The subject of assay [9] is Staphylococcus epidermidis ATCC 12228.
The subject of assay [10] is Staphylococcus aureus NCTC 10788.
Assay [11] deals with Enterococcus faecalis NCTC 12697.
Assay [12] has as its system Klebsiella pneumoniae ATCC 43816.
In assay [13] the test system is Escherichia coli NCTC 10418.
The test system of assay [14] is Candida albicans NCYC 1467.
Assay [15] relates to Staphylococcus aureus NCTC 12493.
The test system of assay [16] is Pseudomonas aeruginosa ATCC 27853.
Assay [17] concerns Staphylococcus aureus FDA 209P.
Assay [18] deals with Bacillus subtilis ATCC 6633.
For assay [19], the system named is Escherichia coli ATCC 25922.
Assay [20] has as its system Staphylococcus aureus ATCC 8530.
Assay [21] concerns Klebsiella pneumoniae ATCC 10031.
Assay [22] concerns Staphylococcus aureus ATCC 6538P.
For assay [23], the system named is Micrococcus luteus ATCC 10240.
In assay [24] the test system is Shigella dysenteriae ATCC 9752.

Molecules are shown by their SMILES. ≈ marks a conversion by molar mass, not a printed value. Where “and” joins values, the source holds several entries; their conditions need not be identical. Identical values can stand only once.

In the case of `CC[C@H](C)[C@H](NC(=O)[C@H](CCCN=C(N)N)NC(=O)[C@@H](NC(=O)[C@@H](NC(=O)[C@@H](NC(=O)[C@H](CCCN=C(N)N)NC(=O)[C@@H](NC(=O)[C@@H](N)CCCN=C(N)N)[C@@H](C)CC)[C@@H](C)CC)[C@@H](C)CC)[C@@H](C)CC)C(=O)N[C@@H](CCCN=C(N)N)C(N)=O` [RIRIIIRIR], the minimum inhibitory concentration (MIC) worked out at 4 µM (≈ 4.83 µg/mL) in the assay with Escherichia coli 1005; 2 µM (≈ 2.42 µg/mL) in [1]; 2 µM (≈ 2.42 µg/mL) with Candida albicans; 4 µM (≈ 4.83 µg/mL) in assay [2]; 2 µM (≈ 2.42 µg/mL) in assay [3]; 4 µM (≈ 4.83 µg/mL) in [4]. Also, the MIC is 4 µM (≈ 4.83 µg/mL) in [5]; 4 µM (≈ 4.83 µg/mL) in assay [6]; 4 µM (≈ 4.83 µg/mL) in [7]; 8 µM (≈ 9.66 µg/mL) in assay [8]; 4 µM (≈ 4.83 µg/mL) in assay [9].
`CC[C@H](C)[C@@H]1NC(=O)[C@H](C)NC(=O)[C@@H](NC(=O)[C@H](Cc2ccccc2)NC(=O)[C@@H](NC(=O)[C@H](CCCCN)NC(=O)[C@@H]2CCCN2C(=O)[C@H](CC(C)C)NC(=O)[C@H](Cc2ccccc2)NC(=O)[C@H](CCCCN)NC(=O)[C@@H](N)CCCCN)[C@@H](C)CC)CSSC[C@@H](C(=O)O)NC(=O)[C@H](CCCCN)NC(=O)[C@H](CCCCN)NC(=O)[C@H]([C@@H](C)O)NC1=O` [KKFLPKIFCAITKKC]: the minimal inhibitory concentration (MIC) is 8 µM (≈ 14.1 µg/mL) in assay [10]; not below 512 µM in assay [11]; not below 128 µM in assay [12]; 16 µM (≈ 28.3 µg/mL) in assay [13]; not below 32 µM in [14]; 16 µM (≈ 28.3 µg/mL) in assay [15]. Besides, in assay [16], the MIC came out at 256 µM (≈ 452 µg/mL).
As for `CC[C@H](C)[C@H](NC(=O)[C@H](C)NC(=O)CNC(=O)[C@H](Cc1ccccc1)NC(=O)[C@H](CC(C)C)NC(=O)[C@H](CC(C)C)NC(=O)[C@@H]1CCCN1C(=O)[C@H](CC(C)C)NC(=O)[C@@H](N)Cc1ccccc1)C(=O)N[C@@H](CO)C(=O)N[C@@H](Cc1cnc[nH]1)C(=O)N[C@@H](CC(C)C)C(=O)N[C@@H](CC(C)C)C(N)=O` [FLPLLFGAISHLL], the minimal inhibitory concentration (MIC) in assay [17] is 30.7 µM (≈ 44.3 µg/mL); in [18], not below 44.4 µM.
Take `CC(C)C[C@H](NC(=O)[C@H](CCCN=C(N)N)NC(=O)[C@H](CC(C)C)NC(=O)[C@H](CC(C)C)NC(=O)[C@H](CC(C)C)NC(=O)[C@H](CCCN=C(N)N)NC(=O)[C@H](CC(C)C)NC(=O)[C@@H](N)CCCN=C(N)N)C(=O)N[C@@H](CCCN=C(N)N)C(N)=O` [RLRLLLRLR]: the minimal inhibitory concentration (MIC) with Escherichia coli 1005 amounted to 4 µM (≈ 4.83 µg/mL); in assay [1] it was 2 µM (≈ 2.42 µg/mL); in the assay on Candida albicans it was 8 µM (≈ 9.66 µg/mL); in [2], 8 µM (≈ 9.66 µg/mL); in assay [3], 8 µM (≈ 9.66 µg/mL); in [4], 4 µM (≈ 4.83 µg/mL). In addition, the minimum inhibitory concentration (MIC) in [5] is 4 µM (≈ 4.83 µg/mL); in assay [6] it was 8 µM (≈ 9.66 µg/mL); in assay [7], 4 µM (≈ 4.83 µg/mL); in assay [8], not below 64 µM; in assay [19], 4 µM and 8 µM; in assay [9], 4 µM (≈ 4.83 µg/mL).
`CC[C@H](C)[C@H](NC(=O)[C@@H]1CCCN1C(=O)[C@H](Cc1ccccc1)NC(=O)[C@H](CCCN=C(N)N)NC(=O)[C@H](Cc1ccccc1)NC(=O)[C@@H](N)CCCN=C(N)N)C(=O)N[C@@H](CCCN=C(N)N)C(=O)N[C@@H](CCCN=C(N)N)C(=O)N1CCC[C@H]1C(=O)N1CCC[C@H]1C(=O)N[C@H](C(=O)N[C@@H](CCCN=C(N)N)C(=O)N1CCC[C@H]1C(=O)N1CCC[C@H]1C(=O)N[C@@H](Cc1ccccc1)C(=O)N[C@@H](Cc1ccc(O)cc1)C(=O)N1CCC[C@H]1C(=O)O)[C@@H](C)CC` [RFRFPIRRPPIRPPFYP] returned an MIC against Escherichia coli BW25113 of 8 µM (≈ 17.7 µg/mL).
As for `CC[C@H](C)[C@H](NC(=O)[C@H](C)NC(=O)[C@H](C)NC(=O)[C@@H]1CCCN1C(=O)[C@@H](NC(=O)[C@H](CC(C)C)NC(=O)[C@H](CO)NC(=O)[C@H](CC(C)C)NC(=O)[C@@H](N)Cc1ccccc1)[C@@H](C)CC)C(=O)N[C@@H](CO)C(=O)N[C@@H](C)C(=O)N[C@H](C(=O)N[C@@H](CO)C(=O)N[C@@H](C)C(=O)N[C@@H](CC(C)C)C(=O)N[C@@H](C)C(=O)N[C@@H](CC(N)=O)C(=O)N[C@@H](Cc1cnc[nH]1)C(=O)N[C@@H](Cc1ccccc1)C(N)=O)C(C)C` [FLSLIPAAISAVSALANHF], the MIC in assay [10] is not below 33 µM; in assay [11] it was not below 264 µM; in assay [12], not below 512 µM; in [13], not below 264 µM; in assay [14], not below 132 µM; in assay [15], not below 33 µM. Also, the MIC in assay [16] was more than 512 µM.
Take `CC[C@H](C)[C@H](NC(=O)[C@@H]1CCCN1C(=O)[C@H](CCCN=C(N)N)NC(=O)[C@H](CCCN=C(N)N)NC(=O)[C@H](Cc1c[nH]c2ccccc12)NC(=O)[C@@H](N)CCCN=C(N)N)C(=O)N[C@@H](CCCN=C(N)N)C(=O)N[C@@H](CCCN=C(N)N)C(=O)N1CCC[C@H]1C(=O)N1CCC[C@H]1C(=O)N[C@H](C(=O)N[C@@H](CCCN=C(N)N)C(=O)N1CCC[C@H]1C(=O)N1CCC[C@H]1C(=O)N[C@@H](Cc1ccccc1)C(=O)N[C@@H](Cc1ccc(O)cc1)C(=O)N[C@@H](CCCN=C(N)N)C(=O)O)[C@@H](C)CC` [RWRRPIRRPPIRPPFYR]: the MIC in the assay on Escherichia coli BW25113 turned out to be 8 µM (≈ 18.6 µg/mL). This lies in the single-digit micromolar range.
In the case of `NC(=O)[C@H](CCCN=C(N)N)NC(=O)[C@H](CCCN=C(N)N)NC(=O)[C@H](Cc1ccccc1)NC(=O)[C@H](CCCN=C(N)N)NC(=O)[C@H](Cc1ccccc1)NC(=O)[C@H](Cc1ccccc1)NC(=O)[C@H](Cc1ccccc1)NC(=O)[C@H](CCCN=C(N)N)NC(=O)[C@H](Cc1ccccc1)NC(=O)[C@H](CCCN=C(N)N)NC(=O)[C@@H](N)CCCN=C(N)N` [RRFRFFFRFRR], the minimum inhibitory concentration (MIC) against Escherichia coli 1005 was 4 µM (≈ 6.76 µg/mL); in assay [1], 1 µM (≈ 1.69 µg/mL); in the assay with Candida albicans it was 2.83 µM (≈ 4.78 µg/mL); in [2], 8 µM (≈ 13.5 µg/mL); in assay [3] it was 2 µM (≈ 3.38 µg/mL); in [4] it was 2 µM (≈ 3.38 µg/mL). For the same molecule, the minimal inhibitory concentration (MIC) in assay [5] is 4 µM (≈ 6.76 µg/mL); in [6], 4 µM (≈ 6.76 µg/mL); in assay [7] it was 4 µM (≈ 6.76 µg/mL); in assay [8] it was 16 µM (≈ 27 µg/mL); in [19] it was 4 µM and > 2 µM; in [9], 4 µM (≈ 6.76 µg/mL).
`CC[C@H](C)[C@H](NC(=O)[C@H](CC(C)C)NC(=O)[C@H](CCC(N)=O)NC(=O)[C@H](CCCCN)NC(C)=O)C(=O)N[C@@H](CCCN=C(N)N)C(=O)N[C@@H](Cc1ccccc1)C(=O)N[C@@H](CC(C)C)C(=O)N[C@@H](CCCCN)C(=O)N[C@@H](CCCN=C(N)N)C(=O)N[C@@H](CC(C)C)C(=O)N[C@@H](CC(=O)O)C(=O)N[C@@H](CCCN=C(N)N)C(=O)N[C@@H](CC(N)=O)C(=O)N[C@@H](CC(C)C)C(=O)N[C@@H](Cc1c[nH]c2ccccc12)C(=O)NCC(=O)N[C@@H](CC(C)C)C(=O)N[C@@H](C)C(N)=O` [KQLIRFLKRLDRNLWGLA]: the minimal inhibitory concentration (MIC) with Escherichia coli W160-37 turned out to be 4.5 µM (≈ 10.3 µg/mL); in assay [20], 11 µM (≈ 25.1 µg/mL).
For `CC(C)C[C@H](NC(=O)[C@H](CC(C)C)NC(=O)[C@H](CCCCN)NC(=O)[C@H](CC(C)C)NC(=O)[C@H](CC(C)C)NC(=O)[C@H](Cc1c[nH]c2ccccc12)NC(=O)[C@H](CCCCN)NC(=O)[C@H](CC(C)C)NC(=O)[C@H](CC(C)C)NC(=O)[C@H](CCCCN)NC(=O)[C@@H](N)CC(C)C)C(N)=O` [LKLLKWLLKLL], the MIC was 1.16 µM (≈ 1.6 µg/mL) in [18]; more than 145 µM in assay [5]; not below 36.2 µM in assay [21]; 36.2 µM (≈ 50 µg/mL) in assay [19]; 2.25 µM (≈ 3.1 µg/mL) in assay [22]; 2.25 µM (≈ 3.1 µg/mL) in [9]. In addition, the results for the MIC in assay [23], in assay [24] and in [16] were 2.25 µM (≈ 3.1 µg/mL), 9.05 µM (≈ 12.5 µg/mL) and more than 145 µM, respectively.
